The nature of the data set: Storage stability of ground amorphous olanzapine at room temperature, by XRPD analysis. The data set is classed as physicochemical. The settings on record: ground sample of Example One stored at room temperature for 13 weeks. On the procedure:
Figure Two is an XRPD spectrum of amorphous olanzapine. X-ray powder diffraction (XRPD) was performed on a Bruker D8 advance difractometer, at 25° C. between the angles of 4° and 50° 2 theta.
The sample of ground olanzapine was stored at room temperature for 13 weeks for stability testing using XRPD analysis.

Structures are written as SMILES.

The results in this text go back to patent publication US20070259857A1, “Amorphous form of Olanzapine” (priority 2003, published 2007).

As to `Cc1cc2c(s1)Nc1ccccc1N=C2N1CCN(C)CC1` [olanzapine, 2-methyl-4-(4-methyl-1-piperazinyl)-10H-thieno[2,3-b][1,5]benzodiazepine], the “Stability testing using XRPD analysis: difference in XRPD spectrum between the original and the stored sample” value is “No difference was observed”.
